Measured values from the NIST ThermoML archive (doi:10.1016/j.jct.2006.05.008).

Experiment: molar heat capacity at constant pressure; wn = mass fraction of the nth substance listed
Settings: Small (less than 1 g) adiabatic calorimetry

CCCCn1cc[n+](C)c1.[Br-] [1-butyl-3-methylimidazolium bromide] + O
Crystal
Settings	molar heat capacity at constant pressure [J/K/mol]
218.45 K, w2 = 0.00482	179.81
218.58 K, w2 = 0.0495	158.93
218.67 K, w2 = 0.00482	179.82
219.16 K, w2 = 0.0051	180.49
219.16 K, w2 = 0.0169	170.74
219.92 K, w2 = 0.0169	174.79
220.75 K, w2 = 0.00482	181.03
221.08 K, w2 = 0.00482	181.37
221.13 K, w2 = 0.0495	162.83
221.26 K, w2 = 0.0169	172.67
221.69 K, w2 = 0.0051	182.19
221.98 K, w2 = 0.0169	175.21
222.83 K, w2 = 0.00482	182.24
223.35 K, w2 = 0.0169	174.92
223.65 K, w2 = 0.0495	166.27
224.06 K, w2 = 0.0169	176.93
224.22 K, w2 = 0.0051	184.17
224.86 K, w2 = 0.00482	183.19
225.43 K, w2 = 0.0169	177.21
226.12 K, w2 = 0.0169	179.17
226.16 K, w2 = 0.0495	169.5
226.71 K, w2 = 0.00482	184.71
226.73 K, w2 = 0.0051	185.92
227.52 K, w2 = 0.0169	179.5
228.19 K, w2 = 0.0169	181.4
228.65 K, w2 = 0.0495	172.65
228.79 K, w2 = 0.00482	185.77
229.25 K, w2 = 0.0051	187.95
229.6 K, w2 = 0.0169	181.84
229.71 K, w2 = 0.0051	187.47
230.25 K, w2 = 0.0169	183.78
230.87 K, w2 = 0.00482	187.3
231.12 K, w2 = 0.0495	175.4
231.45 K, w2 = 0.0051	188.82
231.69 K, w2 = 0.0169	184.4
231.75 K, w2 = 0.0051	189.69
232.32 K, w2 = 0.0169	185.93
232.95 K, w2 = 0.00482	188.74
233 K, w2 = 0.0051	190.22
233.57 K, w2 = 0.0495	178.39
233.77 K, w2 = 0.0169	186.45
234.38 K, w2 = 0.0169	187.94
234.56 K, w2 = 0.0051	191.21
235.03 K, w2 = 0.00482	190.17
235.85 K, w2 = 0.0169	188.93
236.01 K, w2 = 0.0495	181.58
236.12 K, w2 = 0.0051	192.22
236.45 K, w2 = 0.0169	189.99
237.1 K, w2 = 0.00482	191.7
237.67 K, w2 = 0.0051	193.48
237.94 K, w2 = 0.0169	190.98
238.43 K, w2 = 0.0495	184.7
238.52 K, w2 = 0.0169	191.98
239.18 K, w2 = 0.00482	193.21
239.22 K, w2 = 0.0051	194.65
240.02 K, w2 = 0.0169	193.19
240.19 K, w2 = 0.00482	193.43
240.58 K, w2 = 0.0169	194.1
240.74 K, w2 = 0.0051	195.27
240.77 K, w2 = 0.0051	195.7
240.84 K, w2 = 0.0495	187.48
241.25 K, w2 = 0.00482	195.08
241.57 K, w2 = 0.00482	194.88
242.11 K, w2 = 0.0169	195.39
242.23 K, w2 = 0.0051	196.6
242.33 K, w2 = 0.0051	196.86
242.65 K, w2 = 0.0169	196.25
243.11 K, w2 = 0.00482	195.57
243.23 K, w2 = 0.0495	190.7
243.33 K, w2 = 0.00482	196.58
243.57 K, w2 = 0.0051	197.62
243.88 K, w2 = 0.0051	198.03
244.2 K, w2 = 0.0169	197.53
244.66 K, w2 = 0.00482	197.15
244.72 K, w2 = 0.0169	198.26
244.91 K, w2 = 0.0051	198.42
245.41 K, w2 = 0.00482	198.24
245.43 K, w2 = 0.0051	199.16
245.6 K, w2 = 0.0495	193.88
246.12 K, w2 = 0.00482	197.87
246.21 K, w2 = 0.00482	198.68
246.25 K, w2 = 0.0051	199.47
246.28 K, w2 = 0.0169	199.77
246.78 K, w2 = 0.0169	200.42
246.98 K, w2 = 0.0051	200.29
247.48 K, w2 = 0.00482	199.98
247.59 K, w2 = 0.0051	200.49
247.77 K, w2 = 0.00482	200.2
247.97 K, w2 = 0.0495	197.01
248.37 K, w2 = 0.0169	201.97
248.53 K, w2 = 0.0051	201.44
248.85 K, w2 = 0.0169	202.5
248.93 K, w2 = 0.0051	201.61
249.33 K, w2 = 0.00482	201.33
249.56 K, w2 = 0.00482	201.61
250.07 K, w2 = 0.0051	202.63
250.26 K, w2 = 0.0051	202.66
250.31 K, w2 = 0.0495	200.17
250.45 K, w2 = 0.0169	204.14
250.89 K, w2 = 0.00482	202.59
250.91 K, w2 = 0.0169	204.77
251.6 K, w2 = 0.0051	203.88
251.64 K, w2 = 0.00482	203.37
252.15 K, w2 = 0.0051	204.56
252.45 K, w2 = 0.00482	203.62
252.53 K, w2 = 0.0169	206.36
252.64 K, w2 = 0.0495	203.4
252.93 K, w2 = 0.0051	205.05
252.97 K, w2 = 0.0169	206.96
253.72 K, w2 = 0.00482	205.38
253.96 K, w2 = 0.00482	204.5
254 K, w2 = 0.00482	205.09
254.27 K, w2 = 0.0051	206.08
254.62 K, w2 = 0.0169	208.6
254.74 K, w2 = 0.0051	206.57
254.95 K, w2 = 0.0495	206.71
255.04 K, w2 = 0.0169	209.12
255.56 K, w2 = 0.00482	206.28
255.6 K, w2 = 0.0051	207.19
255.8 K, w2 = 0.00482	206.96
255.99 K, w2 = 0.00482	206.25
256.7 K, w2 = 0.0169	211
256.94 K, w2 = 0.0051	208.23

101 kPa, Liquid
Settings	molar heat capacity at constant pressure [J/K/mol]
220.21 K, w2 = 0.0495	192.42
221.78 K, w2 = 0.00482	273.75
222.3 K, w2 = 0.0495	192.93
223.87 K, w2 = 0.00482	274.35
224.39 K, w2 = 0.0495	193.35
225.97 K, w2 = 0.00482	274.97
226.48 K, w2 = 0.0495	193.78
228.05 K, w2 = 0.00482	275.41
228.57 K, w2 = 0.0495	194.3
230.14 K, w2 = 0.00482	275.97
230.66 K, w2 = 0.0495	194.89
232.23 K, w2 = 0.00482	276.47
232.75 K, w2 = 0.0495	195.6
234.32 K, w2 = 0.00482	276.93
236.41 K, w2 = 0.00482	277.36
238.51 K, w2 = 0.00482	278.01
240.59 K, w2 = 0.00482	278.63
242.68 K, w2 = 0.00482	279.3
244.77 K, w2 = 0.00482	280.02
246.87 K, w2 = 0.00482	280.54
248.96 K, w2 = 0.00482	281.17
256.19 K, w2 = 0.0495	201.27
